What was measured:
chronic heart failure = test: Chronic heart failure in rabbits after large myocardial infarction; format: in vivo; conditions: heart failure induced by large myocardial infarction, i.v. at a dose of from 0.1 to 10 mg/kg
Method: The effect of a S1P receptor agonist, e.g. a compound of formula I on chronic heart failure is tested in rabbits where heart failure is induced as a consequence of a large myocardial infarction (R P. Hof et al. J. Cardiovasc. Pharmacol., 1991, 18,361-368). The changes of atrial natriuretic factor or baroflex sensitivity are a reliable indicator of the status of the heart failure in this animal model.

[1] = Acute toxicity p.o. in rats; conditions: rat, in vivo, po
Method: (§1) S1P receptor agonists are well tolerated at dosages required for use in accordance with the present invention. For example, FTY720 has an acute LD50 >10 mg/kg p.o. in rats and monkeys.

[2] = Acute toxicity p.o. in monkeys; conditions: monkey, in vivo, po
Method: as §1

CCCCCCCCc1ccc(CCC(N)(CO)CO)cc1 [Compound A, 2-amino-2-[2-(4-octylphenyl)ethyl]propane-1,3-diol]
effect on the heart failure (chronic heart failure): beneficial effect
LD50 [1]: > 10 mg/kg
LD50 [2]: > 10 mg/kg
